Consider 5 compounds from patent publication US20210253518A1, “KINASE INHIBITOR” (NISSAN CHEMICAL CORPORATION, priority 2018, published 2021).

By IC50 is commonly meant the concentration that gives 50% inhibition. A word on the inhibition: it is the drop in the measured response relative to a control, in per cent.

The assay addresses T1, LATS2 (Homo sapiens, UniProt Q9NRM7).
T1 sequence (Q9NRM7 1-1088): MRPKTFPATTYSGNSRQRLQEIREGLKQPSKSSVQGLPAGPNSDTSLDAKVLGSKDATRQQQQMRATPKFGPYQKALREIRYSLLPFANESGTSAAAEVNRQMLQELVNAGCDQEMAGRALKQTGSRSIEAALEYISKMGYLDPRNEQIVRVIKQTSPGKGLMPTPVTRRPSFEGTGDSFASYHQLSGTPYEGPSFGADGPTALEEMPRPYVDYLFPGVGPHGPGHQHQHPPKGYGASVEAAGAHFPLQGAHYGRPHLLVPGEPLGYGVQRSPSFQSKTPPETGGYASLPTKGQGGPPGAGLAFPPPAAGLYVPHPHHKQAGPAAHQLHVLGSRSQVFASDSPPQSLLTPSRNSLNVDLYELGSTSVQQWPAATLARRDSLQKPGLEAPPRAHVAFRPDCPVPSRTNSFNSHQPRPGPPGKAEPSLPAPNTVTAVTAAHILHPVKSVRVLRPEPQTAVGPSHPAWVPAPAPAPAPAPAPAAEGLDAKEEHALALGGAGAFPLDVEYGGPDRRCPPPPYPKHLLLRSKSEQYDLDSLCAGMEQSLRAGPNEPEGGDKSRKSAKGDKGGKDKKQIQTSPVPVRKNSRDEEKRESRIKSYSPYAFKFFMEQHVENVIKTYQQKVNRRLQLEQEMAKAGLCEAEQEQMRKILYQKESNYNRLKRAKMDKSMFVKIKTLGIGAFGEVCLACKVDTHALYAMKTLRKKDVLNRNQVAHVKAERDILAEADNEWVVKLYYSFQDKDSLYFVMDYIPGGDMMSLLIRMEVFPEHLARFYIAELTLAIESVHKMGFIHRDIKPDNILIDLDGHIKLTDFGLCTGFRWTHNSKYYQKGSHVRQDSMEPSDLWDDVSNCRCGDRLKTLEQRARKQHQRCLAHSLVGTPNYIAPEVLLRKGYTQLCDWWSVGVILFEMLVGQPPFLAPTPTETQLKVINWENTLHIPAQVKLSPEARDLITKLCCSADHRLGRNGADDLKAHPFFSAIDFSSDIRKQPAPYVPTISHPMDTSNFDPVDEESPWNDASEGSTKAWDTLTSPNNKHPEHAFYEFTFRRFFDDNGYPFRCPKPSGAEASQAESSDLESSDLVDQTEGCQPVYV
As to the kind of experiment: Off-chip Mobility Shift Assay (MSA method), kinase inhibition. The assay is classed as biochemical. Particulars: for IC50: 10 steps from 10 μM to 0.3 nM; for inhibition at 0.1 µM: read-out: inhibition (%) LATS2. On the procedure: For compound k-1:B-1, inhibitory activity evaluation (calculation of 50% inhibitory concentration (IC50)) was performed on 8 kinds of kinases (CGK2, LATS2, MSK1, p70S6K, PKACα, PKACβ, SGK2, SGK3). The activity was measured using the Off-chip Mobility Shift Assay (MSA method) described below. The compound was added such that the test concentration of k-1:B-1 was in 10 steps from the final concentration of 10 μM to 0.3 nM.
As an analysis method of the data, the mean signal of the control well containing all reaction components was set to 0% inhibition, the mean signal without enzyme addition was set to 100% inhibition, and the inhibition rate was calculated from the mean signal of 2 wells of each test substance test. The IC50 value was obtained by approximating a plot based on the test substance concentration and inhibition rate to a 4 parameter logistics curve by using the Excel Solver add-in and by the non-linear least squares method.
(§1) 5 μL of k-1:B-1 solution at 4-fold concentration, 5 μL of substrate/ATP/metal solution at 4-fold concentration, and 10 μL of kinase solution at 2-fold concentration, each prepared with assay buffer (20 mM HEPES, 0.01% Triton X-100, 2 mM DTT, pH 7.5), were mixed in the wells of a polypropylene 384-well plate and reacted at room temperature for 1 or 5 hr. Successively, 70 μL of Termination Buffer (QuickScout Screening Assist MSA; Carna Biosciences) was added to discontinue the reaction. Then, the substrate peptide and the phosphorylated peptide in the reaction solution were separated and quantified by the LabChip system (Perkin Elmer). The kinase reaction was evaluated by the resultant product ratio (P/(P+S)) calculated from the substrate peptide peak height (S) and the phosphorylated peptide peak height (P).
For compounds k-1:H-7, k-1:H-1, k-1:D-1, k-1:J-1, and k-1:B-1, inhibitory rate at 100 nM was calculated on 8 kinds of kinases (CGK2, LATS2, MSK1, p70S6K, PKACα, PKACβ, SGK2, SGK3). The activity was measured using the MSA method. As an analysis method of the data, the mean signal of the control well containing all reaction components was set to 0% inhibition, the mean signal without enzyme addition was set to 100% inhibition, and the inhibition rate was calculated from the mean signal of 2 wells of each test substance test.
as §1, with “a compound” for “k-1:B-1”
For compounds k-1:I-1, k-1:D-1, k-1:J-1, k-1:H-1, k-1:H-7, k-1:B-1, k-5:H-1, k-1:H-3, k-1:D-4 and k-1:I-10, inhibitory activity evaluation (calculation of IC50) was performed on LATS2. The activity was measured using the Off-chip Mobility Shift Assay (MSA method) described below. The compounds were added such that the test concentration of each compound was in 10 steps from the final concentration of 10 μM to 0.3 nM.
5 μL of k-1:I-1, k-1:D-1, k-1:J-1, k-1:H-1, k-1:H-7, k-1:B-1, k-5:H-1, k-1:H-3, k-1:D-4 and k-1:I-10 solutions at 4-fold concentration, 5 μL of substrate/ATP/metal solution at 4-fold concentration, and 10 μL of kinase solution at 2-fold concentration, each prepared with assay buffer (20 mM HEPES, 0.01% Triton X-100, 2 mM DTT, pH 7.5), were mixed in the wells of a polypropylene 384-well plate and reacted at room temperature for 1 or 5 hr. […]

Molecules are shown by their SMILES. Like-named read-outs stand apart in the source and are kept apart here.

Take `CCC(=NNC(=O)CNc1ccccc1)c1ccc(O)c(C)c1O` [k-1:H-1]: for the setting “MSA method”, the IC50 was 12.9 nM. The inhibition at 0.1 µM (at 100 nM, MSA method) worked out at 92.1%.

On to `CC/C(=N\NC(=O)C(C)Nc1ccccc1)c1ccc(O)c(C)c1O` (stereo not shown) [k-1:B-1], for which the concentration for half-maximal inhibition (IC50) (MSA method) turned out to be 5.12 nM. Also, under “at 100 nM, MSA method”, the inhibition at 0.1 µM is 93.8%.

Take `CC/C(=N\NC(=O)CNc1cccc(O)c1)c1ccc(O)c(C)c1O` [k-1:D-1]: the inhibition at 0.1 µM was 101%. In addition, for the setting “MSA method”, the concentration for half-maximal inhibition (IC50) worked out at 1.84 nM.

Take `CCC(=NNC(=O)C(CC)Nc1ccccc1)c1ccc(O)c(C)c1O` (stereo not shown) [k-1:H-7]: the IC50 (MSA method) is 6.57 nM. Further, the inhibition at 0.1 µM (at 100 nM, MSA method) was found to be 95.8%.

Take `CC/C(=N\NC(=O)NCc1cccc(O)c1)c1ccc(O)c(C)c1O` [k-1:J-1]: the inhibition at 0.1 µM came to 96.2%. The IC50 (MSA method) is 5.26 nM.
